Columns and labels:
Experiment in all cases: Test C greenhouse herbicide test, pre- and postemergence
Format in all cases: in vivo
corn (Zea mays) = test system: corn (Zea mays)
Excerpt: (§1) Seeds of plant species selected from blackgrass (Alopecurus myosuroides), ryegrass, Italian (Italian ryegrass, Lolium multiflorum), wheat (winter wheat, Triticum aestivum), galium (catchweed bedstraw, Galium aparine), corn (Zea mays), large crabgrass, large (large crabgrass, Digitaria sanguinalis), foxtail, giant (giant foxtail, Setaria faberii), johnsongrass (Sorghum halepense), lambsquarters (Chenopodium album), morningglory (Ipomoea coccinea), nutsedge, yellow (yellow nutsedge, Cyperus esculentus), pigweed (Amaranthus retroflexus), ragweed (common ragweed, Ambrosia elatior), soybean (Glycine max), barnyardgrass (Echinochloa crus-galli), oilseed rape (Brassica napus), waterhemp (common waterhemp, Amaranthus rudis), and velvetleaf (Abutilon theophrasti) were planted into a blend of loam soil and sand and treated preemergence with test chemicals formulated in a non-phytotoxic solvent mixture which included a surfactant.
(§2) At the same time, plants selected from these crop and weed species and also chickweed (common chickweed, Stellaria media), kochia (Kochia scoparia), and oat, wild (wild oat, Avena fatua), were planted in pots containing Redi-Earth® planting medium (Scotts Company, 14111 Scottslawn Road, Marysville, Ohio 43041) comprising spaghnum peat moss, vermiculite, wetting agent and starter nutrients and treated with postemergence applications of test chemicals formulated in the same manner. Plants ranged in height from 2 to 18 cm (1- to 4-leaf stage) for postemergence treatments. Treated plants and controls were maintained in a greenhouse for 13 to 15 d, after which time all species were compared to controls and visually evaluated. Plant response ratings, summarized in Table C, are based on a scale of 0 to 100 where 0 is no effect and 100 is complete control. A dash (-) response means no test result.

[1] = test system: nutsedge, yellow (yellow nutsedge, Cyperus esculentus)
Excerpt: as §1, §2

[2] = test system: ragweed (common ragweed, Ambrosia elatior)
Excerpt: as §1, §2

[3] = test system: morningglory (Ipomoea coccinea)
Excerpt: as §1, §2

[4] = test system: waterhemp (common waterhemp, Amaranthus rudis)
Excerpt: as §1, §2

[5] = test system: galium (catchweed bedstraw, Galium aparine)
Excerpt: as §1, §2

[6] = test system: barnyardgrass (Echinochloa crus-galli)
Excerpt: as §1, §2

[7] = test system: crabgrass, large (large crabgrass, Digitaria sanguinalis)
Excerpt: as §1, §2

[8] = test system: lambsquarters (Chenopodium album)
Excerpt: as §1, §2

soybean (Glycine max) = test system: soybean (Glycine max)
Excerpt: as §1, §2

[9] = test system: velvetleaf (Abutilon theophrasti)
Excerpt: as §1, §2

[10] = test system: oilseed rape (Brassica napus)
Excerpt: as §1, §2

[11] = test system: blackgrass (Alopecurus myosuroides)
Excerpt: as §1, §2

[12] = test system: ryegrass, Italian (Italian ryegrass, Lolium multiflorum)
Excerpt: as §1, §2

[13] = test system: foxtail, giant (giant foxtail, Setaria faberii)
Excerpt: as §1, §2

[14] = Postemergence, 31 g ai/ha, 0 to 100 scale (0 no effect, 100 complete control)
[15] = Postemergence, 125 g ai/ha, scale 0 to 100, 0 is no effect, 100 is complete control
[16] = Postemergence, 250 g ai/ha, scale 0 to 100, 0 no effect, 100 complete control, 13 to 15 d
[17] = Preemergence, 31 g ai/ha, scale 0 to 100, 0 is no effect, 100 is complete control
[18] = Preemergence, 62 g ai/ha, scale 0 to 100, 0 is no effect, 100 is complete control
[19] = Preemergence, 125 g ai/ha, scale 0 to 100, 0 is no effect, 100 is complete control
[20] = Preemergence, 250 g ai/ha, scale 0 to 100, 0 no effect, 100 complete control
[21] = postemergence, 62 g ai/ha, scale 0 to 100, 0 no effect, 100 complete control

Question: Which “Corn plant response rating” value (corn (Zea mays); [14]) does the source give for Cc1nn(C)c(=O)c(-c2cccc3ccccc23)c1O [Compound 11, 5-hydroxy-2,6-dimethyl-4-(1-naphthalenyl)-3(2H)-pyridazinone] here?
Answer: 0

Question: What about the “Plant response rating, Corn” value (corn (Zea mays); [15]) of the same compound?
Answer: 0

Question: And the “Plant response rating, Corn” value (corn (Zea mays); [16])?
Answer: 0

Question: And the “Plant response rating, Corn” value (corn (Zea mays); [17])?
Answer: 0

Question: What about the “Plant response rating, Corn” value (corn (Zea mays); [18]) of the same compound?
Answer: 0

Question: What about the “Plant response rating, Corn” value (corn (Zea mays); [19]) of the same compound?
Answer: 0

Question: What about the “Corn plant response rating” value (corn (Zea mays); [20]) of the same compound?
Answer: 0

Question: And the “Corn plant response rating” value (corn (Zea mays); [21])?
Answer: 0

Question: And the “Nutsedge, Yellow plant response rating” value [1, 14]?
Answer: 5

Question: And the “Plant response rating, Nutsedge, Yellow” value [1, 15]?
Answer: 30

Question: And the “Plant response rating, Nutsedge, Yellow” value [1, 16]?
Answer: 45

Question: And the “Plant response rating, Nutsedge, Yellow” value [1, 17]?
Answer: 0

Question: What about the “Plant response rating, Nutsedge, Yellow” value [1, 18] of the same compound?
Answer: 5

Question: What about the “Plant response rating, Nutsedge, Yellow” value [1, 19] of the same compound?
Answer: 10

Question: What about the “Nutsedge, Yellow plant response rating” value [1, 20] of the same compound?
Answer: 30

Question: And the “Nutsedge, Yellow plant response rating” value [1, 21]?
Answer: 15

Question: And the “Ragweed plant response rating” value [2, 14]?
Answer: 0

Question: And the “Plant response rating, Ragweed” value [2, 15]?
Answer: 95

Question: And the “Plant response rating, Ragweed” value [2, 16]?
Answer: 95

Question: And the “Plant response rating, Ragweed” value [2, 17]?
Answer: 15

Question: And the “Plant response rating, Ragweed” value [2, 18]?
Answer: 50

Question: And the “Plant response rating, Ragweed” value [2, 19]?
Answer: 80

Question: What about the “Ragweed plant response rating” value [2, 20] of the same compound?
Answer: 90

Question: What about the “Ragweed plant response rating” value [2, 21] of the same compound?
Answer: 40

Question: And the “Morningglory plant response rating” value [3, 14]?
Answer: 70

Question: And the “Plant response rating, Morningglory” value [3, 15]?
Answer: 90

Question: What about the “Plant response rating, Morningglory” value [3, 16] of the same compound?
Answer: 98

Question: And the “Plant response rating, Morningglory” value [3, 17]?
Answer: 100

Question: And the “Plant response rating, Morningglory” value [3, 18]?
Answer: 100

Question: And the “Plant response rating, Morningglory” value [3, 19]?
Answer: 100

Question: And the “Morningglory plant response rating” value [3, 20]?
Answer: 100

Question: What about the “Morningglory plant response rating” value [3, 21] of the same compound?
Answer: 80

Question: And the “Waterhemp plant response rating” value [4, 14]?
Answer: 80

Question: And the “Plant response rating, Waterhemp” value [4, 15]?
Answer: 95

Question: And the “Plant response rating, Waterhemp” value [4, 16]?
Answer: 95

Question: What about the “Plant response rating, Waterhemp” value [4, 18] of the same compound?
Answer: 100

Question: What about the “Plant response rating, Waterhemp” value [4, 19] of the same compound?
Answer: 100

Question: What about the “Waterhemp plant response rating” value [4, 20] of the same compound?
Answer: 100

Question: And the “Waterhemp plant response rating” value [4, 21]?
Answer: 80

Question: And the “Galium plant response rating” value [5, 14]?
Answer: 75

Question: And the “Plant response rating, Galium” value [5, 15]?
Answer: 90

Question: What about the “Plant response rating, Galium” value [5, 16] of the same compound?
Answer: 90

Question: And the “Plant response rating, Galium” value [5, 17]?
Answer: 85

Question: What about the “Plant response rating, Galium” value [5, 18] of the same compound?
Answer: 90

Question: What about the “Plant response rating, Galium” value [5, 19] of the same compound?
Answer: 90

Question: And the “Galium plant response rating” value [5, 20]?
Answer: 95

Question: What about the “Galium plant response rating” value [5, 21] of the same compound?
Answer: 90

Question: What about the “Barnyardgrass plant response rating” value [6, 14] of the same compound?
Answer: 0

Question: What about the “Plant response rating, Barnyardgrass” value [6, 15] of the same compound?
Answer: 5

Question: What about the “Plant response rating, Barnyardgrass” value [6, 16] of the same compound?
Answer: 15

Question: What about the “Plant response rating, Barnyardgrass” value [6, 17] of the same compound?
Answer: 0

Question: What about the “Plant response rating, Barnyardgrass” value [6, 18] of the same compound?
Answer: 0

Question: What about the “Plant response rating, Barnyardgrass” value [6, 19] of the same compound?
Answer: 10

Question: And the “Barnyardgrass plant response rating” value [6, 20]?
Answer: 80

Question: And the “Barnyardgrass plant response rating” value [6, 21]?
Answer: 0

Question: What about the “Crabgrass, Large plant response rating” value [7, 14] of the same compound?
Answer: 0

Question: What about the “Plant response rating, Crabgrass, Large” value [7, 15] of the same compound?
Answer: 0

Question: What about the “Plant response rating, Crabgrass, Large” value [7, 16] of the same compound?
Answer: 10

Question: And the “Plant response rating, Crabgrass, Large” value [7, 17]?
Answer: 0

Question: What about the “Plant response rating, Crabgrass, Large” value [7, 18] of the same compound?
Answer: 0

Question: And the “Plant response rating, Crabgrass, Large” value [7, 19]?
Answer: 40

Question: And the “Crabgrass, Large plant response rating” value [7, 20]?
Answer: 40

Question: And the “Crabgrass, Large plant response rating” value [7, 21]?
Answer: 0

Question: And the “Lambsquarters plant response rating” value [8, 14]?
Answer: 80

Question: And the “Plant response rating, Lambsquarters” value [8, 15]?
Answer: 90

Question: What about the “Plant response rating, Lambsquarters” value [8, 16] of the same compound?
Answer: 90

Question: What about the “Plant response rating, Lambsquarters” value [8, 17] of the same compound?
Answer: 70

Question: And the “Plant response rating, Lambsquarters” value [8, 18]?
Answer: 100

Question: And the “Plant response rating, Lambsquarters” value [8, 19]?
Answer: 100

Question: What about the “Lambsquarters plant response rating” value [8, 20] of the same compound?
Answer: 100

Question: And the “Lambsquarters plant response rating” value [8, 21]?
Answer: 90

Question: And the “Soybean plant response rating” value (soybean (Glycine max); [14])?
Answer: 0

Question: And the “Plant response rating, Soybean” value (soybean (Glycine max); [15])?
Answer: 0

Question: And the “Plant response rating, Soybean” value (soybean (Glycine max); [16])?
Answer: 0

Question: And the “Plant response rating, Soybean” value (soybean (Glycine max); [18])?
Answer: 0

Question: And the “Plant response rating, Soybean” value (soybean (Glycine max); [19])?
Answer: 0

Question: And the “Soybean plant response rating” value (soybean (Glycine max); [20])?
Answer: 0

Question: And the “Soybean plant response rating” value (soybean (Glycine max); [21])?
Answer: 0

Question: What about the “Velvetleaf plant response rating” value [9, 14] of the same compound?
Answer: 0

Question: What about the “Plant response rating, Velvetleaf” value [9, 15] of the same compound?
Answer: 45

Question: What about the “Plant response rating, Velvetleaf” value [9, 16] of the same compound?
Answer: 80

Question: What about the “Plant response rating, Velvetleaf” value [9, 18] of the same compound?
Answer: 10

Question: And the “Plant response rating, Velvetleaf” value [9, 19]?
Answer: 90

Question: And the “Velvetleaf plant response rating” value [9, 20]?
Answer: 90

Question: And the “Velvetleaf plant response rating” value [9, 21]?
Answer: 5

Question: What about the “Oilseed Rape plant response rating” value [10, 14] of the same compound?
Answer: 0

Question: And the “Plant response rating, Oilseed Rape” value [10, 15]?
Answer: 0

Question: What about the “Plant response rating, Oilseed Rape” value [10, 16] of the same compound?
Answer: 0

Question: What about the “Plant response rating, Oilseed Rape” value [10, 17] of the same compound?
Answer: 0

Question: What about the “Plant response rating, Oilseed Rape” value [10, 18] of the same compound?
Answer: 0

Question: And the “Plant response rating, Oilseed Rape” value [10, 19]?
Answer: 0

Question: And the “Oilseed Rape plant response rating” value [10, 20]?
Answer: 0

Question: What about the “Oilseed Rape plant response rating” value [10, 21] of the same compound?
Answer: 0

Question: And the “Blackgrass plant response rating” value [11, 14]?
Answer: 5

Question: And the “Plant response rating, Blackgrass” value [11, 15]?
Answer: 30

Question: And the “Plant response rating, Blackgrass” value [11, 16]?
Answer: 75

Question: What about the “Plant response rating, Blackgrass” value [11, 17] of the same compound?
Answer: 35

Question: And the “Plant response rating, Blackgrass” value [11, 18]?
Answer: 40

Question: What about the “Plant response rating, Blackgrass” value [11, 19] of the same compound?
Answer: 50

Question: And the “Blackgrass plant response rating” value [11, 20]?
Answer: 85

Question: And the “Blackgrass plant response rating” value [11, 21]?
Answer: 15

Question: What about the “Ryegrass, Italian plant response rating” value [12, 14] of the same compound?
Answer: 70

Question: And the “Plant response rating, Ryegrass, Italian” value [12, 15]?
Answer: 90

Question: What about the “Plant response rating, Ryegrass, Italian” value [12, 16] of the same compound?
Answer: 90

Question: And the “Plant response rating, Ryegrass, Italian” value [12, 17]?
Answer: 90

Question: What about the “Plant response rating, Ryegrass, Italian” value [12, 18] of the same compound?
Answer: 95

Question: What about the “Plant response rating, Ryegrass, Italian” value [12, 19] of the same compound?
Answer: 100

Question: What about the “Ryegrass, Italian plant response rating” value [12, 20] of the same compound?
Answer: 100

Question: What about the “Ryegrass, Italian plant response rating” value [12, 21] of the same compound?
Answer: 70

Question: What about the “Foxtail, Giant plant response rating” value [13, 14] of the same compound?
Answer: 5

Question: And the “Plant response rating, Foxtail, Giant” value [13, 15]?
Answer: 10

Question: What about the “Plant response rating, Foxtail, Giant” value [13, 16] of the same compound?
Answer: 30

Question: And the “Plant response rating, Foxtail, Giant” value [13, 17]?
Answer: 0

Question: What about the “Plant response rating, Foxtail, Giant” value [13, 18] of the same compound?
Answer: 35

Question: What about the “Plant response rating, Foxtail, Giant” value [13, 19] of the same compound?
Answer: 50

Question: And the “Foxtail, Giant plant response rating” value [13, 20]?
Answer: 90

Question: What about the “Foxtail, Giant plant response rating” value [13, 21] of the same compound?
Answer: 5

Reference: patent US10597388B2, “Pyridazinone herbicides” (FMC CORPORATION, priority 2014, dated 2020)
